Assay results: patent US20250115598A1 (Anaxis Pharma Pty Ltd, priority 2021, published 2025)

Experiments:
human MLKL (full length) = human MLKL (full length) (Homo sapiens (Human), UniProt Q8NB16); test: KINOMEscan binding assay, human MLKL (full length); conditions: hMLKL, Table 25; read-out: MLKL (KD)
Method in brief: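 Tagged kinase + immobilized ligand beads + compound; eluted kinase quantified by qPCR. Kinase source: T7 phage lysate (BL21-derived E. coli, 32 °C) or HEK-293 with DNA tag. 11-pt 3-fold series, 1% DMSO, top 30,000 nM (most). Hill fit, slope −1 → Kd.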

[1] = test system: Immortalised Mouse Dermal Fibroblasts (MDFs); test: Cellular assay: inhibition of TSI induced necroptosis, CellTitre-Glo viability; conditions: Mus musculus, Fibroblast; MDF, 3 hours TSI cocktail, Table 27; read-out: Inhibition of TSI-induced necroptosis (IC50 cell-based assay) in MDF
Experimental: Cellular Assay: Screening Compounds for Inhibition of TSI Induced Necroptosis in, 384 Well Plate Format.
• Cell Line ID: Immortalised Mouse Dermal Fibroblasts (MDFs). • Cell Concentration (cells/well): Final cell density is 2200 cells per well. • Cell growth medium: DMEM medium+7.4% Fetal Bovine Serum (FBS). Cells are cultured in Corning 150 cm^2 tissue culture flasks with vented caps at 37° C./10% CO2. • Incubation: Plates were incubated for 30 minutes following addition of compounds and then 3 hours incubation with death stimuli (TSI cocktail) at 37° C./10% CO2 in a humidified incubator. • Compound concentration: 36 μM starting concentration, 1:3 dilution, 10 point • DMSO final concentration (% v/v): 0.3%. Compounds in TSI Cocktail (T: TNF; S: Smac Mimetic; I: IDN-6556) and their Final Concentrations: • rhTNF (100 ng/ml) • Compound a (500 nM)—Smac Mimetic, Tetralogic and SYNthesis Med Chem • IDN-6556 (10 μM)—Selleckchem (S7775)
The cellular assay was carried out according to the following steps: • 1. Each well was prepared by sequential addition of: • a. 40 μL of cell suspension (5.5×10^4 cells/mL) was added to each well to provide a final cell concentration of 2,200 cells per well. • b. After 24 hours, DMSO (control; columns 1-2 and 23-24) or compound in DMSO—addition was performed using acoustic transfer of nL volumes of stock compound to give final test concentrations of 36, 12, 4, 1.3, 0.44, 0.148, 0.049, 0.016, 0.005 and 0.002 μM. All wells were backfilled with DMSO to a final total volume in the well of 100 nL. • c. Following compound/DMSO addition in step (b), Plates were incubated for 30 minutes at 37° C./10% CO2 in a humidified incubator and then 10 μL of 5×TSI cocktail (except to positive controls; columns 2 and 24) was added to each well. • 2. After 3 hours, plate was removed from the 37° C. incubator and equilibrated to room temperature for 15 minutes. • 3. 15 μL of room temperatured CellTitre-Glo2™ (Promega™) was added to each well. • 4. Shook plates for 2 minutes (˜600 rpm) and incubated at room temperature for 15 minutes to allow signal to stabilise. • 5. Read luminescence readout on a plate reader.
Percent viability was calculated for each compound according to equation (2):
[formula] • Wherein RawData is the readout of any cell containing a compound of the invention.
TA is the total activity provided by the luminescence readout from DMSO only wells (columns 2 and 24)=100% viability.
NSA is the non-specific activity provided by DMSO+TSI wells (columns 1 and 23)=0% viability • Curve fitting: 10-point titration curves are fitted with the 4-parameter logistic nonlinear regression model and the IC50 reported is the inflection point of the curve • Analysis: Data was loaded into Dotmatics™ and visualised using the Tibco@ • Spotfire™ software. 10 point titration curves were fitted with the 4 parameter logistic nonlinear regression model and the IC50 reported reflect the inflection point of the curve for curve fitting.
Assay involving the TSI cocktail (T: TNF; S: Smac mimetic; I: IDN-6556): TSI treatment ensures that cells specifically undergo necroptotic cell death. TNF activates the TNF receptor, Smac mimetic directs the signal away from proinflammatory signaling and toward the RIPK1/RIPK3-mediated cell death pathways, and IDN-6556 (Caspase inhibitor) ensures that the apoptotic response is blocked leaving only the programmed necrosis response. The compounds' activity (solution in DMSO) tested in this TSI-induced assay was evaluated by determining the number of viable cells in culture by measuring the amount of ATP present as measured by CelltiterGlo.

endogenous MLKL in MDF = endogenous MLKL in MDF (Mus musculus (Mouse), UniProt Q9D2Y4); test: Degradation assay: endogenous MLKL in MDF (western blot); conditions: MDF cells, 24 h incubation with compound, MLKL adjusted for loading with GAPDH, normalized to DMSO only control, read-out: Degradation of endogenous MLKL in MDF (DC50 cell-based assay)
Experimental: Degradation Assay: Screening Compounds Procedure to Evaluate the Activity of Compounds in Degrading Endogenous MLKL in Human and Mouse Cell
The mouse dermal fibroblast (MDF) cell line was seeded the day before the experiment in a 24-well plate at a cell density of […] per well in a volume of 0.5 mL per well and left to attach overnight. The human monocyte cell line (U937) was seeded on the day of the experiment in a 24-well plate at a cell density of […] per well in a volume of 0.5 mL per well.
The compound was diluted in DMSO with a starting concentration of 10 mM and titrated stepwise with a dilution of 1:5. 0.5 μL of the compound dilution was added to the appropriate well to achieve a final concentration of 10; 2; 0.4; 0.08 and 0.016 μM. A DMSO only well was included as control.
The cells were incubated for 24 h in the presence of the compound at 37° C. and 10% CO2.
After the 24 h incubation period, the medium was removed and cells washed with 0.5 mL PBS. The cells were then lysed directly in 60 μL of 1×SDS gel loading buffer.
The cell lysate was heat-denatured at […] for 10 min. 10 μL of lysate per well were run on 18-well 4-15% Criterion TGX stain free gels (BIO-RAD). The proteins were then transferred onto nitrocellulose membrane with a wet transfer protocol in the Criterion Blotter (BIO-RAD).
Membranes were blocked with 5% skim milk in TBST. Primary antibody against MLKL (clone 3H1, MABC604 Merck) was used at 1:2000 dilution in TBST with 1% BSA and left shaking over night at 4° C. After washes with TBST, the membranes were incubated with goat anti-rat IgG HRP-conjugated antibody (Southern Biotech) in 1% skim milk TBST at 1:10000 dilution for 1 h at room temperature. After TBST washes the bands were imaged on the ChemiDoc MP Imaging System (BIO-RAD) with Immobilion Western Chemiluminescent HRP Substrate Forte (Millipore). The loading control GAPDH was probed for with rabbit anti-GAPDH (CST 14C10) at 1:2000 dilution in 1% BSA TBST over night at 4° C. TBST washes were followed by incubation with goat anti-rabbit IgG HRP-conjugated antibody (Southern Biotech) in 1% skim milk TBST at 1:10000 dilution for 1 h at room temperature followed by TBST washes. The signal was detected as described above.
The band intensity was measured in the ImageLab Software (BIO-RAD) and the MLKL values adjusted for loading with GAPDH. The percentage of degradation was calculated by normalizing the compound treated values to the DMSO only control.

Chain of human MLKL (full length) (Q8NB16 whole entry): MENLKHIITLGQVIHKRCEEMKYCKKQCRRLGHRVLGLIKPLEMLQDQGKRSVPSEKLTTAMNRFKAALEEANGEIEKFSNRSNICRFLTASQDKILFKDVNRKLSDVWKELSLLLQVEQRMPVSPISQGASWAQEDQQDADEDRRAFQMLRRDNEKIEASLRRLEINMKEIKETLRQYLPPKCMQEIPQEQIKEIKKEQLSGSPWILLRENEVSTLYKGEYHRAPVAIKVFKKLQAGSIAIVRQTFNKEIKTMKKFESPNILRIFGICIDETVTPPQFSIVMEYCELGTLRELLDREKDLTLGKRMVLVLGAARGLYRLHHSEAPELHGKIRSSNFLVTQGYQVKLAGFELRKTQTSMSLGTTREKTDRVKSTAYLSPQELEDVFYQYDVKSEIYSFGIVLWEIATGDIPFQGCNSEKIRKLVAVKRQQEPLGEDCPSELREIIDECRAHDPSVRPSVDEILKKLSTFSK
Chain of endogenous MLKL in MDF (Q9D2Y4 whole entry): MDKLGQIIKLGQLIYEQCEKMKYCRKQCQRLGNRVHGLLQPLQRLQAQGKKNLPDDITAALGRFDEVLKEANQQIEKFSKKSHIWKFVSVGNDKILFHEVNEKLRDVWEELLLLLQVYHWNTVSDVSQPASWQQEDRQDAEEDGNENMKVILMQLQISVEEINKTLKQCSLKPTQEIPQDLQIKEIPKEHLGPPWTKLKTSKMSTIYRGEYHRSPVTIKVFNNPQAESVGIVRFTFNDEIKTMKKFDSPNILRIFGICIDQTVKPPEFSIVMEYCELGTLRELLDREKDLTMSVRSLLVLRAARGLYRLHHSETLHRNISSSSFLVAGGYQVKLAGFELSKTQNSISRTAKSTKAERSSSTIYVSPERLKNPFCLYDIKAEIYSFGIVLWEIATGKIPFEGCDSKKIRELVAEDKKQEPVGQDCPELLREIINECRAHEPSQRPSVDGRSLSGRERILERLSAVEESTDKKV

Compound | Kd (human MLKL (full length)) [nM] | IC50 [1] [nM] | DC50 (endogenous MLKL in MDF) [nM]
C[C@H](Oc1cc(-c2nn(C)c3c(-c4cnn(C5CCN(C(=O)[C@H]6CC[C@@H](Nc7cccc8c7C(=O)N(C7CCC(=O)NC7=O)C8=O)CC6)CC5)c4)cnc(N)c23)ccc1NS(=O)(=O)C(F)F)c1ccc(F)cc1 (stereo partly shown) [Compound 1071] | < 10 | < 1000 | < 1000
CCS(=O)(=O)Nc1ccc(-c2nn(C)c3c(-c4cnn(C5CCN(C(=O)[C@H]6C[C@H](Nc7cccc8c7C(=O)N(C7CCC(=O)NC7=O)C8=O)C6)CC5)c4)cnc(N)c23)cc1F (stereo partly drawn) [Compound 1102, N-{4-[4-amino-1-methyl-7-(1-{1-[(trans)-3-{[2-(2,6-dioxopiperidin-3-yl)-1,3-dioxo-2,3-dihydro-1H-isoindol-4-yl]amino}cyclobutanecarbonyl]piperidin-4-yl}-1H-pyrazol-4-yl)-1H-pyrazolo[4,3-c]pyridin-3-yl]-2-fluorophenyl}ethane-1-sulfonamide] | < 10 | < 1000 | < 1000
C[C@H](Oc1cc(-c2nn(C)c3c(-c4cnn(C5CCN(C(=O)OCC6CCN(c7cccc8c7C(=O)N(C7CCC(=O)NC7=O)C8=O)CC6)CC5)c4)cnc(N)c23)ccc1NS(=O)(=O)C(F)F)c1ccc(F)cc1 (stereo partly shown) [Compound 1105, {1-[2-(2,6-dioxopiperidin-3-yl)-1,3-dioxo-2,3-dihydro-1H-isoindol-4-yl]piperidin-4-yl}methyl4-(4-{4-amino-3-[4-(difluoromethanesulfonamido)-3-[(1 S)-1-(4-fluorophenyl)ethoxy]phenyl]-1-methyl-1H-pyrazolo[4,3-c]pyridin-7-yl}-1H-pyrazol-1-yl)piperidine-1-carboxylate] | 10 to 1000 | < 1000 | < 1000
C[C@H](Oc1cc(-c2nn(C)c3c(-c4cnn(C5CCN(C(=O)C6CN(c7cccc8c7C(=O)N(C7CCC(=O)NC7=O)C8=O)CCO6)CC5)c4)cnc(N)c23)ccc1NS(=O)(=O)C(F)F)c1ccc(F)cc1 (stereo partly drawn) [Compound 1070, N-(4-{4-amino-7-[1-(1-{4-[2-(2,6-dioxopiperidin-3-yl)-1,3-dioxo-2,3-dihydro-1H-isoindol-4-yl]morpholine-2-carbonyl}piperidin-4-yl)-1H-pyrazol-4-yl]-1-methyl-1H-pyrazolo[4,3-c]pyridin-3-yl}-2-[(1S)-1-(4-fluorophenyl)ethoxy]phenyl)-1,1-difluoromethanesulfonamide] | 10 to 1000 | < 1000 | < 1000
C[C@H](Oc1cc(-c2nn(C)c3c(-c4cnn(C5CCN(C(=O)[C@H]6C[C@H](Nc7cccc8c7C(=O)N(C7CCC(=O)NC7=O)C8=O)C6)C6(CC6)C5)c4)cnc(N)c23)ccc1NS(=O)(=O)C(F)F)c1ccc(F)cc1 (stereo partly drawn) [Compound 1107, N-{4-[4-amino-1-methyl-7-(1-{4-[(1r,3r)-3-{[2-(2,6-dioxopiperidin-3-yl)-1,3-dioxo-2,3-dihydro-1H-isoindol-4-yl]amino}cyclobutanecarbonyl]-4-azaspiro[2.5]octan-7-yl}-1H-pyrazol-4-yl)-1H-pyrazolo[4,3-c]pyridin-3-yl]-2-[(1S)-1-(4-fluorophenyl)ethoxy]phenyl}-1,1-difluoromethanesulfonamide] | 10 to 1000 | < 1000 | < 1000
C[C@H](Oc1cc(-c2nn(C)c3c(-c4cnn(C5CCN(C(=O)[C@]6(F)C[C@@H](Nc7cccc8c7C(=O)N(C7CCC(=O)NC7=O)C8=O)C6)CC5)c4)cnc(N)c23)ccc1NS(=O)(=O)C(F)F)c1ccc(F)cc1 (stereo partly drawn) [Compound 1111, N-{4-[4-amino-1-methyl-7-(1-{1-[(cis)-3-{[2-(2,6-dioxopiperidin-3-yl)-1,3-dioxo-2,3-dihydro-1H-isoindol-4-yl]amino}-1-fluorocyclobutane-carbonyl]piperidin-4-yl}-1H-pyrazol-4-yl)-1H-pyrazolo[4,3-c]pyridin-3-yl]-2-[(1S)-1-(4-fluorophenyl)ethoxy]phenyl}-1,1-difluoro-methanesulfonamide] | 10 to 1000 | < 1000 | < 1000
C[C@H](Oc1cc(-c2nn(C)c3c(-c4cnn(C5CCN(CCn6cc(CCNc7cccc8c7C(=O)N(C7CCC(=O)NC7=O)C8=O)nn6)CC5)c4)cnc(N)c23)ccc1NS(=O)(=O)C(F)F)c1ccc(F)cc1 (stereo partly shown) [Compound 1128, N-(4-{4-amino-7-[1-(1-{2-[4-(2-{[2-(2,6-dioxopiperidin-3-yl)-1,3-dioxo-2,3-dihydro-1H-isoindol-4-yl]amino}ethyl)-1H-1,2,3-triazol-1-yl]ethyl}piperidin-4-yl)-1H-pyrazol-4-yl]-1-methyl-1H-pyrazolo[4,3-c]pyridin-3-yl}-2-[(1 S)-1-(4-fluorophenyl)ethoxy]phenyl)-1,1-difluoromethanesulfonamide] |  | < 1000 | < 1000
C[C@H](Oc1cc(-c2nn(C)c3c(-c4cnn(C5CCN(C(=O)Cc6cccc7c6C(=O)N(C6CCC(=O)NC6=O)C7=O)CC5)c4)cnc(N)c23)ccc1NS(=O)(=O)C(F)F)c1ccc(F)cc1 (stereo partly drawn) [Compound 1137, N-(4-{4-amino-7-[1-(1-{2-[2-(2,6-dioxopiperidin-3-yl)-1,3-dioxo-2,3-dihydro-1H-isoindol-4-yl]acetyl}piperidin-4-yl)-1H-pyrazol-4-yl]-1-methyl-1H-pyrazolo[4,3-c]pyridin-3-yl}-2-[(1S)-1-(fluorophenyl)ethoxy]phenyl)-1,1-difluoromethanesulfonamide] |  | 1000 to 10000 | < 1000
